Experimental data: paper PMC6344527, “Toxicity and possible mechanisms of action of honokiol from Magnolia denudata seeds against four mosquito species” (Scientific Reports, 2019)
Values after ≈ are worked out from the molar mass of the structure shown. Read-outs that look alike come from different tables or passages of the source.

Key:
[1] = test system: third-instar larvae of insecticide-susceptible Culex pipiens pallens; test: contact mortality bioassay, 24 h exposure; format: in vivo; conditions: 24 h exposure; for LC50: Culex pipiens, 24 h
Experimental: (§1) A contact mortality bioassay[25] was used to evaluate the toxicity of all compounds against third-instar larvae of the four mosquito species. Each test compound in methanol was suspended in DW with Triton X-100 (20 µL/L). Groups of 20 mosquito larvae were separately placed into paper cups (270 mL) containing each compound solution (250 mL). […] Negative controls consisted of a methanol–Triton X-100 solution in DW.
(§2) Treated and control (methanol–Triton X-100 solution only) larvae were maintained under the same conditions as those used for colony maintenance without providing food. Larval mortalities were determined 24 h post-treatment. […] All treatments were performed three times using 20 larvae per replicate.
(§3) The concentration of the test compounds required to produce 50% AChE inhibitory activity (IC50) was determined using the SAS 9.13 program (Cary: SAS Institute; 2014). Concentration-mortality data were subjected to probit analysis using the SAS 9.13 program. […] Statistical analyses were performed using the SAS 9.13 program. Multiple linear regression and correlation analysis were performed using the SPSS 24 program (Armonk: IBM Corp.; 2016).

[2] = test system: third-instar larvae of insecticide-susceptible Aedes aegypti; test: contact mortality bioassay, 24 h exposure; format: in vivo; conditions: 24 h exposure; for LC50: Aedes aegypti, 24 h
Experimental: as §1, §2, §3

[3] = target: acetylcholinesterase (AChE) from third-instar Ae. aegypti larvae (Aedes aegypti, UniProt A4GND7); test: acetylcholinesterase inhibition assay; format: biochemical; conditions: based on IC50 values
Chain of acetylcholinesterase (AChE) from third-instar Ae. aegypti larvae (A4GND7 37-679): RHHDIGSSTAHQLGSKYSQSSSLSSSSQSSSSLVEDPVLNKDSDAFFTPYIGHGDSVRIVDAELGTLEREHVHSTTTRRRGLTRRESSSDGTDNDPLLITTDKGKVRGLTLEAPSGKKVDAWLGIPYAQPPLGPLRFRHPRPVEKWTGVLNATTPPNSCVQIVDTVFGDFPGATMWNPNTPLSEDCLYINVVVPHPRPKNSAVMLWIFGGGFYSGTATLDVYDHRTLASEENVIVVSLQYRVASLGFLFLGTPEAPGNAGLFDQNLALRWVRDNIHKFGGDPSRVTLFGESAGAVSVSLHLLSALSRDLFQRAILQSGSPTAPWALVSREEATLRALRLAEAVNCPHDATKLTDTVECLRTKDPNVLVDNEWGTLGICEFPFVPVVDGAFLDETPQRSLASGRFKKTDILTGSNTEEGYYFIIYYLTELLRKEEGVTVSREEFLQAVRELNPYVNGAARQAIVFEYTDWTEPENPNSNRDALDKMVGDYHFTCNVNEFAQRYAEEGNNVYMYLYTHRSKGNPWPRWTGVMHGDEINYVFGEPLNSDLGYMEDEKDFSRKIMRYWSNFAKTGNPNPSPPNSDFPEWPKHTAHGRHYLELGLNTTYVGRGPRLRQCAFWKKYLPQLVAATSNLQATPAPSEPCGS
Experimental: The in vitro AChE inhibitory activity of the test compounds was assessed according to the method of Perumalsamy et al.[42]. Third-instar Ae. aegypti larvae were used in all experiments. Whole bodies of 50 larvae were homogenized in 1 mL of ice-cold 0.1 M phosphate buffer (pH 8.0) using a glass tissue homogenizer. After filtering through cheesecloth, the homogenate was centrifuged at 1,000 × g at 4 °C for 5 min. The supernatant was used directly as the enzyme source for AChE. The protein levels were determined using the Bradford Protein Assay Kit (Bio-Rad Laboratories, Hercules, CA, USA) using BSA as the standard. The reaction mixture consisted of 50 µL of the crude enzyme preparation (4.3–4.8 µg protein equivalents), 150 µL of 0.1 M phosphate buffer, 20 µL of 3 mM DTNB in phosphate buffer (pH 7.0), and 1 µL of various concentrations of each test compound in ethanol. The reaction mixture was incubated at 30 °C for 5 min, and 20 µL of 32 mM ATChI was then added to the mixture. After incubation for 30 min, the reaction was terminated by adding 20 µL of 5 mM eserine salicylate. Absorbance was recorded at 412 nm using a VersaMax microplate reader (Molecular Devices, Sunnyvale, CA, USA). […] The results are expressed as the means ± standard errors (SEs) of triplicate samples from three independent experiments.
as §3

mosquito species larvae = conditions: cited from earlier work
[4] = Table 6, structure-activity series
[5] = Table 7, structure-activity series
[6] = Table 6, structure-activity series, read-out: LC50 (mg/L) (95% CI)
[7] = Table 7, structure-activity series, read-out: LC50 (mg/L) (95% CI)

isoeugenol
LC90 (mg/L) (95% CI) [1, 4]: 138.1 (124.4–164.5) mg/L
LC90 (mg/L) (95% CI) [2, 5]: 137.2 (124.3–161.2) mg/L

COc1ccccc1O [Guaiacol, guaiacol]
LC50 [1, 6]: 108 mg/L (≈ 868 µM)
LC90 (mg/L) (95% CI) [1, 4]: 205.6 (176.3–260.9) mg/L
LC50 [2, 7]: 115 mg/L (≈ 930 µM)
LC90 (mg/L) (95% CI) [2, 5]: 223.1 (188.3–292.1) mg/L

COP(=O)(OC)OC=C(Cl)Cl [Dichlorvos, dichlorvos, reference compound]
LC50 ([1]; read-out: LC50 (mg/L) (95% CI), Table 6, structure-activity series): 0.103 mg/L (≈ 0.466 µM)
LC90 (mg/L) (95% CI) [1, 4]: 0.504 (0.380–0.761) mg/L
LC50 ([2]; read-out: LC50 (mg/L) (95% CI), Table 7, structure-activity series): 0.158 mg/L (≈ 0.715 µM)
LC90 (mg/L) (95% CI) [2, 5]: 0.660 (0.505–0.963) mg/L
AChE inhibitory activity (in words) [3]: did not differ significantly

C=C[C@H](O)C#CC#CC/C=C\CCCCCCC [falcarinol]
LC50 (mosquito species larvae; acetylenic alcohols): 3.49 µg/mL (≈ 14.3 µM)

C=C[C@@H](O)C#CC#C[C@@H](O)/C=C\CCCCCCC [falcarindiol]
LC50 (mosquito species larvae; acetylenic alcohols): 6.51 µg/mL (≈ 25 µM)

CCOC(=O)C=Cc1ccc(OC)cc1 [ethyl p-methoxycinnamate]
LC50 (mosquito species larvae; phenylpropanoids): 12.3 to 20.7 µg/mL

(−)-asarinin
LC50 (mosquito species larvae; lignans): 10.49 to 16.49 µg/mL

CCCCCCCC/C=C\CCCCCCCC(=O)O [oleic acid]
LC50 (mosquito species larvae; flavonoids and fatty acids): 18.07 to 18.45 µg/mL

C=CCc1ccc(O)c(OC)c1 [Eugenol, eugenol]
LC50 [1, 6]: 74.3 mg/L (≈ 453 µM)
LC90 (mg/L) (95% CI) [1, 4]: 143.3 (127.2–170.3) mg/L
LC50 [2, 7]: 75.8 mg/L (≈ 461 µM)
LC90 (mg/L) (95% CI) [2, 5]: 141.4 (126.3–166.2) mg/L

C=CCc1cccc(OC)c1O [o-Eugenol, o-eugenol]
LC50 [1, 6]: 7.46 mg/L (≈ 45.4 µM)
LC90 (mg/L) (95% CI) [1, 4]: 23.13 (18.42–33.49) mg/L
LC50 [2, 7]: 8.84 mg/L (≈ 53.8 µM)
LC90 (mg/L) (95% CI) [2, 5]: 24.01 (19.52–33.06) mg/L
AChE inhibitory activity (in words) [3]: relatively weak AChE inhibitors

N#C[C@@H](O[C@@H]1O[C@H](CO)[C@@H](O)[C@H](O)[C@H]1O)c1ccc(O)cc1 [dhurrin]
LC50 (mosquito species larvae; cyanogenic glycosides): 12 µg/mL (≈ 38.5 µM)
